Assays:
aphthous ulcers = conditions: continuous systemic treatment, antimicrobial amounts; cited from earlier work
[1] = Plasma concentration of COL-3 in humans; assay type: in vivo; conditions: dose of about 10 to about 20 mg/day
Protocol: A preferred COL is 6-demethyl-6-deoxy-4-de(dimethylamino)tetracycline (COL-3). COL-3 is administered in doses of up to about 200 mg/day, preferably about 150 mg/day, more preferably about 100 mg/day, or in amounts that result in plasma concentrations of up to about 50 μg/ml, about 40 μg/ml or about 30 μg/ml. For example, a dose of about 10 to about 20 mg/day of COL-3 produces plasma concentrations in humans of about 1.0 μg/ml.

[2] = tested on: minor aphthous ulceration; test: Clinical study of SDD versus placebo for relief of symptoms of aphthous ulceration; assay type: in vivo, human; conditions: for number of ulcers / pain associated with ulcers: 20 mg twice a day, vis-à-vis placebo group
Protocol: The objective of this study was to evaluate the clinical effects of a 20 mg dose of doxycycline administered twice daily (i.e., a sub-antibacterial dose of doxycycline, “SDD”) vis-à-vis a placebo administered twice daily for the relief of symptoms of aphthous ulceration.
The study was a single center, placebo-controlled, double-bind, parallel group study. The study participants were fifty patients of an oral medicine clinic. The participants were screened to identify any known predisposing factors prior to the study.
The participants were administered SDD or placebo for three months. The participants were permitted to use any additional ulcer management therapies as needed. The participants kept daily diaries to record pain caused by ulcers using the Visual Analogue Scale (VAS), and to record the number of new ulcers each day. The VAS quantified pain over a continuum represented by a horizontal line 100 mm in length.
At the baseline, the oral soft tissues and ulcer count were evaluated in each of the participants. The ulcer history of each participant was taken. At the third month, oral soft tissues and ulcer count were reevaluated.
Of the 50 participants, 25 were administered SDD; and 25 were administered placebo. Of the 50 participants, 32 were females, 18 were males; and 49 were Caucasian, and one was Asian. Thirty-three participants completed the study. Of these participants, 16 were in the SDD group and 17 were in the placebo group.

In the case of `CN(C)[C@@H]1C(O)=C(C(N)=O)C(=O)[C@@]2(O)C(O)=C3C(=O)c4c(O)cccc4[C@@](C)(O)[C@H]3C[C@@H]12` [tetracycline, Tetracycline], the “remission phases of aphthous ulcers” value (aphthous ulcers) is listed as “long remission phases”.
For `NC(=O)C1=C(O)C[C@@H]2C[C@@H]3Cc4cccc(O)c4C(=O)C3=C(O)[C@]2(O)C1=O` [COL-3, 6-demethyl-6-deoxy-4-de(dimethylamino)tetracycline], the “plasma concentrations in humans” value [1] was “about 1.0 μg/ml”.
With doxycycline hyclate [SDD] the “treatment of RAS” value ([2]; 20 mg doxycycline twice daily for three months) was “effectively treated RAS”, the “Mean number of ulcers present at month 3” value ([2]; 20 mg doxycycline twice daily for three months, placebo group 1.24, P >0.05) was 0.69 and the “Mean number of days using additional treatments” value ([2]; 20 mg doxycycline twice daily for three months, placebo group 13.4, P >0.05) was 11.5. For the same molecule, the “Mean total number of new ulcers in 3 months” value ([2]; 20 mg doxycycline twice daily for three months, placebo group 35, P >0.05(0.07)) was 17, the number of ulcers [2] was “fewer ulcers” and the “pain associated with ulcers” value [2] was “less pain”. For the same molecule, the number of ulcers ([2]; listed as doxycycline hyclate) was “significant reduction”, the “pain associated with ulcers” value ([2]; listed as doxycycline hyclate) was “significant reduction” and the “Mean cumulative VAS (mm)” value ([2]; pain by Visual Analogue Scale, daily diaries over three months, placebo group 1435, P >0.05) was 901 mm.
